Reference: patent US20260078135A1, “POLYCYCLIC QUINAZOLINES FOR INHIBITION OF ERBB2” (Enliven Inc., priority 2022, published 2026)

Columns and labels:
[1] = molecular target: T1, phosphorylated EGFR (pEGFR) (Homo sapiens, UniProt P00533); assay: Detection of phosphorylated EGFR (pEGFR) by AlphaLISA in EGF-stimulated A431 cells; format: cell-based; conditions: A431 cells (10% FBS), 4 hours incubation, EGF 30 ng/mL for 10 minutes
T1 construct: performed to measure phosphorylated EGFR levels using A431 cells (10% FBS); endogenous in cells; host or cells: A431
Outline: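 pEGFR was quantified by AlphaLISA in lysates of A431 cells (10% FBS) given a 10 min pulse of EGF at 30 ng/mL after 4 h compound exposure at 37 °C. IC50 came from a four-parameter fit of % inhibition between DMSO and staurosporine controls.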

Ba/F3 ERBB2 YVMA = Ba/F3 ERBB2 YVMA (Homo sapiens, UniProt P04626, DUP772-775, cells depend on it); assay: Cell viability assay (CellTiter Glo), Ba/F3 cells engineered to express ERBB2 YVMA; format: cell-based, mouse; conditions: Ba/F3 cells expressing human ERBB2 YVMA mutant, 72 hours, read-out: Ba/F3 ERBB2 YVMA, IC50
Outline: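 Ba/F3 cells (IL-3-independent via stable retroviral human ERBB2 YVMA) seeded 3000/well and given compound from about 10 μM to 0.51 nM in three-fold steps, DMSO ≤0.1%, 72 h at 37° C. Viability by CellTiter Glo luminescence, normalized to DMSO and media-only controls. Sigmoidal nonlinear fit.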

[2] = molecular target: T2, phosphorylated ERBB2 (pERBB2) (Homo sapiens, UniProt P04626); assay: Detection of phosphorylated ERBB2 (pERBB2) by ELISA in BT-474 cells; format: cell-based; conditions: four hour incubation
T2 construct: endogenous in cells; host or cells: BT-474
Outline: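 BT-474 cells were treated with compounds (fourfold dilutions, 10 μM to 0.01 nM final) for 4 h at 37 °C, then lysed. pERBB2 in lysates was quantified by ELISA with an HRP anti-phosphotyrosine detection antibody and TMB read at 450 nm; % relative activity was normalized to no-cell and 0.1% DMSO controls.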

T1 sequence (P00533 25-1210): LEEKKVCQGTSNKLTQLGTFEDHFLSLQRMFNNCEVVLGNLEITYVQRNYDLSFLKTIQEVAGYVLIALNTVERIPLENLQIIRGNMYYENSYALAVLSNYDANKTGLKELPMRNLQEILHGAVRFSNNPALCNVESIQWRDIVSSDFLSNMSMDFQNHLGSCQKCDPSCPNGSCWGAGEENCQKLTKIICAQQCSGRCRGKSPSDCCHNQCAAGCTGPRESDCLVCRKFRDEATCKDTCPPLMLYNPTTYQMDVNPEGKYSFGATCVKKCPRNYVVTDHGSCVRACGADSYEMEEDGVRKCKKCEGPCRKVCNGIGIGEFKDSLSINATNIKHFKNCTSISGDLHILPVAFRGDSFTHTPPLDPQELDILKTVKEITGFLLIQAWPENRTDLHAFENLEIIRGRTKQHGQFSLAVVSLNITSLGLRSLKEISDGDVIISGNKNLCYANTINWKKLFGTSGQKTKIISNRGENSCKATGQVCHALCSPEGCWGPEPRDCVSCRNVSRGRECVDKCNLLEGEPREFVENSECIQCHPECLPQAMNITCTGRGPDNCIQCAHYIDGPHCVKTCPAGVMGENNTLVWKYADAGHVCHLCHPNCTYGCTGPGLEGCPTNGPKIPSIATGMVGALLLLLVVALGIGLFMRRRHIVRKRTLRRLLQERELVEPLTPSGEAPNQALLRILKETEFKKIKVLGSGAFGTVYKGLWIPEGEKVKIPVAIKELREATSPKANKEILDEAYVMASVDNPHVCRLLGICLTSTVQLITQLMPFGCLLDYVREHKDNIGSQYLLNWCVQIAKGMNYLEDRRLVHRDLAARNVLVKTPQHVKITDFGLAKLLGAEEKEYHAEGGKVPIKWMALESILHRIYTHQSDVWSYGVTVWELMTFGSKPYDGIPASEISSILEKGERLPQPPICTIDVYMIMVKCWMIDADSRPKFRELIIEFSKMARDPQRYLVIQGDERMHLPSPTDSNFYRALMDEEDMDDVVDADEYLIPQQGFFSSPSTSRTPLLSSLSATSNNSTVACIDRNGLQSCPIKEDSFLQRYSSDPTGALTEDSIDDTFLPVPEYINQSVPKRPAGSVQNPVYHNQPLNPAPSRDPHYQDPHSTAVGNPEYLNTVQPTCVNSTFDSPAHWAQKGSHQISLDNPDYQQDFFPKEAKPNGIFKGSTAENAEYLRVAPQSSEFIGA
T2 sequence (P04626 23-1255): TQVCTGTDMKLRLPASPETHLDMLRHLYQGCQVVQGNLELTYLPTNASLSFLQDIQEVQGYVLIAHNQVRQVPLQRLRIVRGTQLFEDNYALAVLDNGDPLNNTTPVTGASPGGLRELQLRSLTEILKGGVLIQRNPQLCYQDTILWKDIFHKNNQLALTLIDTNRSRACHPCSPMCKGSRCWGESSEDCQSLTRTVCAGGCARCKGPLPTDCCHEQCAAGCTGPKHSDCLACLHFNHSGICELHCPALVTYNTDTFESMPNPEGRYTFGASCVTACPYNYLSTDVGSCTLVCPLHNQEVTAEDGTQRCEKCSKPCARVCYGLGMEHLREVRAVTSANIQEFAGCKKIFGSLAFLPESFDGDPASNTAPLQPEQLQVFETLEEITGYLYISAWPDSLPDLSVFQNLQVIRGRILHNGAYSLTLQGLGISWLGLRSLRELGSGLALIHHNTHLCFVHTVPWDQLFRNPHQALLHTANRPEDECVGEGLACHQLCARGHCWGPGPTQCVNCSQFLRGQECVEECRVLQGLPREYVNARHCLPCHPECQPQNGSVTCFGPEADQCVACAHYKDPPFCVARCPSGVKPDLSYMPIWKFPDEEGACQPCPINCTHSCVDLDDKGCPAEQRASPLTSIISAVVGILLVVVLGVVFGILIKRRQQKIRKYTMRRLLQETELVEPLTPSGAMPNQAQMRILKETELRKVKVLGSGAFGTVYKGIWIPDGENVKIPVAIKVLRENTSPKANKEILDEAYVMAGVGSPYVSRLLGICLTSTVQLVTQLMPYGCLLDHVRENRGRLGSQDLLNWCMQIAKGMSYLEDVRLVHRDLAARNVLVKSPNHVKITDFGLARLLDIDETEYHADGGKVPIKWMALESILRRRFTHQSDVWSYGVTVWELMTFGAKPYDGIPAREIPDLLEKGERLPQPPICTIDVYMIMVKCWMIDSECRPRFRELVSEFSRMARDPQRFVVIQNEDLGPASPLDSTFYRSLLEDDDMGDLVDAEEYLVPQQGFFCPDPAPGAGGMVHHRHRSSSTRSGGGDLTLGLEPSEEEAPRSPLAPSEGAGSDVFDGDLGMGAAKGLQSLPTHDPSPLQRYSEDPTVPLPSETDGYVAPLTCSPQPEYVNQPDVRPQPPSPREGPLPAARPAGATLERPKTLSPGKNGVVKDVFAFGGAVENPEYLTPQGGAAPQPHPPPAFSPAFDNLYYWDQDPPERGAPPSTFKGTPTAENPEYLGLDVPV
Chain of Ba/F3 ERBB2 YVMA (P04626 with tags, fused parts or gaps DUP772-775): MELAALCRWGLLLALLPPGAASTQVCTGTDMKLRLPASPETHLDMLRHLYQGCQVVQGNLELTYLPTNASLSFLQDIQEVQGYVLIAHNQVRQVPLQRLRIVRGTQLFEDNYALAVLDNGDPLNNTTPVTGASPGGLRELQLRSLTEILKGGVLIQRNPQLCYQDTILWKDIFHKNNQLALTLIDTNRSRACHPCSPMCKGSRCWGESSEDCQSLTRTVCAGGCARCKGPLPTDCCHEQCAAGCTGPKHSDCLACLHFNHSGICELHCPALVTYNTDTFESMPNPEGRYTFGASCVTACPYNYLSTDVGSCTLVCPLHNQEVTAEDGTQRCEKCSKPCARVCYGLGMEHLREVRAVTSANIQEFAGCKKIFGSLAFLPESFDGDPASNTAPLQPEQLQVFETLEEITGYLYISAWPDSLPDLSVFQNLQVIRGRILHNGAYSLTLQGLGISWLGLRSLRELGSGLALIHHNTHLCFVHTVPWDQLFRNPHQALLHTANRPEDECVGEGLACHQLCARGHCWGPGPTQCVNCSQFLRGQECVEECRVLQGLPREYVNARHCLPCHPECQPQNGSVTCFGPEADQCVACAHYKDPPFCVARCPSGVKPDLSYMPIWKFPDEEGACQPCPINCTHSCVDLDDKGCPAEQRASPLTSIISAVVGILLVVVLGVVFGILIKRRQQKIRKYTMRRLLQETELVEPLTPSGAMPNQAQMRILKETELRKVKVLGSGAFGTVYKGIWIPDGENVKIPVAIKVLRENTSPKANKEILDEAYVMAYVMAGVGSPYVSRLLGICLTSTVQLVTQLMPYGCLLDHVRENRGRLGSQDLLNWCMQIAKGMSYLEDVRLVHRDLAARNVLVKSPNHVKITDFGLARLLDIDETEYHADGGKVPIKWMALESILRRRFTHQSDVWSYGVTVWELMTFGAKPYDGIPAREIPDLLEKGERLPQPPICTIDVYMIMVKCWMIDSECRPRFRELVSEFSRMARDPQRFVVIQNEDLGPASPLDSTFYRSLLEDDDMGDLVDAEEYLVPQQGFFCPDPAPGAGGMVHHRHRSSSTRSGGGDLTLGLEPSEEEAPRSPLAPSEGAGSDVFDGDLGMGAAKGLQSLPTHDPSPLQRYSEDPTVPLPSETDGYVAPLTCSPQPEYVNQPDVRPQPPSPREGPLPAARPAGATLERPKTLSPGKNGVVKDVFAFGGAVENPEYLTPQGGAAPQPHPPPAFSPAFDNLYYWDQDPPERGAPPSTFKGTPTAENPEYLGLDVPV

| Structure (SMILES) | IC50 [1] [nM] | IC50 [2] [nM] | GI50 (Ba/F3 ERBB2 YVMA) [nM] |
| --- | --- | --- | --- |
| Cc1cc(Nc2ncnc3cnc4c(c23)O[C@H]2CCN(C)C[C@H]2N4C)ccc1Oc1ccc2c(c1)ncn2C [Compound 131, (7aR,11aS)-7,9-dimethyl-N-(3-methyl-4-((1-methyl-1H-benzo[d]imidazol-5-yl)oxy)phenyl)-7a,8,9,10,11,11a-hexahydro-7H-pyrido[4,3-b]pyrimido[5′,4′:4,5]pyrido[2,3-e][1,4]oxazin-1-amine] | > 10000 | 32.7 | 87.1 |
| Cc1cc(Nc2ncnc3cc4c(cc23)N2CCN(C(=O)/C=C/CN(C)C)C[C@H]2CO4)ccc1Oc1ccc2c(c1)ncn2C [Compound 11, (S,E)-4-(dimethylamino)-1-(11-((3-methyl-4-((1-methyl-1H-benzo[d]imidazol-5-yl)oxy)phenyl)amino)-1,2,4a,5-tetrahydropyrazino[1′,2′:4,5][1,4]oxazino[3,2-g]quinazolin-3(4H)-yl)but-2-en-1-one] | 1180 | 73.3 | 65.3 |
| Cc1cc(Nc2ncnc3cc4c(nc23)N2CCN(C(=O)/C=C/CN(C)C)C[C@H]2CO4)ccc1Oc1ccc2c(c1)ncn2C [Compound 17, (S,E)-4-(dimethylamino)-1-(11-((3-methyl-4-((1-methyl-1H-benzo[d]imidazol-5-yl)oxy)phenyl)amino)-1,2,4a,5-tetrahydropyrazino[1,2-d]pyrimido[4′,5′:5,6]pyrido[3,2-b][1,4]oxazin-3(4H)-yl)but-2-en-1-one] | 307 | 34.3 | 5.11 |
| Cc1cc(Nc2ncnc3ccc4c(c23)O[C@H]2CCN(C)C[C@@H]2N4)ccc1Oc1ccc2c(c1)ncn2C (relative stereo) [Compound 126, trans-9-methyl-N-(3-methyl-4-((1-methyl-1H-benzo[d]imidazol-5-yl)oxy)phenyl)-7a,8,9,10,11,11a-hexahydro-7H-pyrido[3′,4′:5,6][1,4]oxazino[2,3-f]quinazolin-1-amine] | > 10000 | 62.1 | 140 |
| Cc1cc(Nc2ncnc3cc4c(nc23)N2CCN(C)C[C@H]2CO4)ccc1Oc1cc2ncn(C)c2cn1 [Compound 127, (S)-3-methyl-N-(3-methyl-4-((3-methyl-3H-imidazo[4,5-c]pyridin-6-yl)oxy)phenyl)-1,2,3,4,4a,5-hexahydropyrazino[1,2-d]pyrimido[4′,5′:5,6]pyrido[3,2-b][1,4]oxazin-11-amine] | > 10000 | 828 | > 500 |
| Cc1cc(Nc2ncnc3ccc4c(c23)O[C@@H]2CCNC[C@@H]2N4C)ccc1Oc1ccc2c(c1)ncn2C [Compound 134, (7aS,11aR)-7-methyl-N-(3-methyl-4-((1-methyl-1H-benzo[d]imidazol-5-yl)oxy)phenyl)-7a,8,9,10,11,11a-hexahydro-7H-pyrido[3′,4′:5,6][1,4]oxazino[2,3-f]quinazolin-1-amine] | 727 | 113 | > 500 |

More lines, main results first:

| IC50 [1] [nM] | IC50 [2] [nM] | Structure (SMILES) | GI50 (Ba/F3 ERBB2 YVMA) [nM] |
| --- | --- | --- | --- |
| 221 | 19.1 | CN(C)C/C=C/C(=O)N1CCN2C[C@@H]1COc1c2ccc2ncnc(Nc3cc(F)c(Oc4ccn5ncnc5c4)cc3F)c12 [Compound 96, (E)-1-((3R)-13-((4-([1,2,4]triazolo[1,5-a]pyridin-7-yloxy)-2,5-difluorophenyl)amino)-2,3,5,6-tetrahydro-4H-3,7-methano[1,4,7]oxadiazonino[2,3-f]quinazolin-4-yl)-4-(dimethylamino)but-2-en-1-one] | 9.12 |
| 3280 | 32.7 | Cc1cc(Nc2ncnc3cc4c(cc23)N2CCN(C(=O)/C=C/CN(C)C)C[C@@H]2CO4)ccc1Oc1ccn2ncnc2c1 [Compound 10, (R,E)-1-(11-((4-([1,2,4]triazolo[1,5-a]pyridin-7-yloxy)-3-methylphenyl)amino)-1,2,4a,5-tetrahydropyrazino[1′,2′:4,5][1,4]oxazino[3,2-g]quinazolin-3(4H)-yl)-4-(dimethylamino)but-2-en-1-one] | 84.9 |
| > 10000 | 50.4 | Cc1cc(Nc2ncnc3ccc4c(c23)OC[C@H]2CN4CCN2C(=O)/C=C/[C@@H](C)N(C)C)c(F)cc1Oc1ccn2ncnc2c1 [Compound 90, (4R,E)-1-((3R)-13-((4-([1,2,4]triazolo[1,5-a]pyridin-7-yloxy)-2-fluoro-5-methylphenyl)amino)-2,3,5,6-tetrahydro-4H-3,7-methano[1,4,7]oxadiazonino[2,3-f]quinazolin-4-yl)-4-(dimethylamino)pent-2-en-1-one] | 28.7 |
| 1510 | 13.1 | Cc1cc(Nc2ncnc3cnc4c(c23)OC[C@H]2CN(C(=O)/C=C/CN(C)C)CCN42)c(F)cc1Oc1ccn2ncnc2c1 [Compound 117, (R,E)-1-(4-((4-([1,2,4]triazolo[1,5-a]pyridin-7-yloxy)-2-fluoro-5-methylphenyl)amino)-6a,7,9,10-tetrahydropyrazino[1,2-d]pyrimido[5′,4′:4,5]pyrido[3,2-b][1,4]oxazin-8(6H)-yl)-4-(dimethylamino)but-2-en-1-one] | 6.57 |
| 572 | 10.9 | Cc1cc(Nc2ncnc3ccc4c(c23)OC[C@H]2CN(C(=O)/C=C/CN(C)C)CCN42)c(F)cc1Oc1ccn2ncnc2c1 [Compound 116, (R,E)-1-(4-((4-([1,2,4]triazolo[1,5-a]pyridin-7-yloxy)-2-fluoro-5-methylphenyl)amino)-6a,7,9,10-tetrahydropyrazino[1′,2′:4,5][1,4]oxazino[2,3-f]quinazolin-8(6H)-yl)-4-(dimethylamino)but-2-en-1-one] | 14 |
| 701 | 22.8 | Cc1cc(Nc2ncnc3ccc4c(c23)OC[C@H]2CN4CCN2C(=O)/C=C/C2CN(C)C2)ccc1Oc1ccn2ncnc2c1 [Compound 80, (E)-1-((3R)-13-((4-([1,2,4]triazolo[1,5-a]pyridin-7-yloxy)-3-methylphenyl)amino)-2,3,5,6-tetrahydro-4H-3,7-methano[1,4,7]oxadiazonino[2,3-f]quinazolin-4-yl)-3-(1-methylazetidin-3-yl)prop-2-en-1-one] | 77.2 |
| 544 | 22.8 | Cc1cc(Nc2ncnc3ccc4c(c23)OC[C@H]2CN(C(=O)/C=C/CN(C)C)CCN42)ccc1Oc1ccc2c(c1)ncn2C [Compound 22, (R,E)-4-(dimethylamino)-1-(4-((3-methyl-4-((1-methyl-1H-benzo[d]imidazol-5-yl)oxy)phenyl)amino)-6a,7,9,10-tetrahydropyrazino[1′,2′:4,5][1,4]oxazino[2,3-f]quinazolin-8(6H)-yl)but-2-en-1-one] | 2.12 |
| 460 | 6.51 | CN(C)C/C=C/C(=O)N1CCN2C[C@@H]1COc1c2ccc2ncnc(Nc3ccc(Oc4ccn5ncnc5c4)cc3)c12 [Compound 77, (E)-1-((3R)-13-((4-([1,2,4]triazolo[1,5-a]pyridin-7-yloxy)phenyl)amino)-2,3,5,6-tetrahydro-4H-3,7-methano[1,4,7]oxadiazonino[2,3-f]quinazolin-4-yl)-4-(dimethylamino)but-2-en-1-one] | 14.4 |
| 4770 | 30.2 | CN(C)C/C=C/C(=O)N1CCN2c3ncc4ncnc(Nc5cc(F)c(Oc6ccn7ncnc7c6)cc5F)c4c3OC[C@H]2C1 [Compound 115, (R,E)-1-(4-((4-([1,2,4]triazolo[1,5-a]pyridin-7-yloxy)-2,5-difluorophenyl)amino)-6a,7,9,10-tetrahydropyrazino[1,2-d]pyrimido[5′,4′:4,5]pyrido[3,2-b][1,4]oxazin-8(6H)-yl)-4-(dimethylamino)but-2-en-1-one] | 7.22 |
